Experimental data as given in patent US6472348B1, “Pyridone derivatives and herbicides” (Kumiai Chemical Industry Co., Ltd., priority 1996, dated 2002).

Tests used:
barnyardgrass (Ec) [1] = test: Test Example 1: herbicidal effects by paddy field soil treatment; format: in vivo; conditions: 100 g of the active ingredient per 10 ares, 21st day after the application, index 0-5 of Table 47;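 note: grade of growth control; 5 = at least 90%; 4 = 70 to 90%; 3 = 50 to 70%; 2 = 30 to 50%; 1 = 10 to 30%; 0 = under 10%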
How it was run: (§1)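 Greenhouse pot test in flooded paddy soil, dosed at 100 g a.i. per 10 ares; effect scored on day 21.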

bulrush (Sc) = test: as above; format: in vivo; conditions: 100 g of the active ingredient per 10 ares, 21st day after the application, index 0-5 of Table 47;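 note: grade of growth control; 5 = at least 90%; 4 = 70 to 90%; 3 = 50 to 70%; 2 = 30 to 50%; 1 = 10 to 30%; 0 = under 10%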
How it was run: as §1

monochoria (Mo) = test: as above; format: in vivo; conditions: 100 g of the active ingredient per 10 ares, 21st day after the application, index 0-5 of Table 47;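 note: grade of growth control; 5 = at least 90%; 4 = 70 to 90%; 3 = 50 to 70%; 2 = 30 to 50%; 1 = 10 to 30%; 0 = under 10%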
How it was run: as §1

rice flatsedge (Ci) [2] = test: Test Example 3: herbicidal effects by upland field foliage treatment; format: in vivo; parameters: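 grade of growth control; 5 = at least 90%; 4 = 70 to 90%; 3 = 50 to 70%; 2 = 30 to 50%; 1 = 10 to 30%; 0 = under 10%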
How it was run: (§2)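 Seeds → sand pot (120 cm^2) → soil cover → greenhouse 2 wk → foliar treatment → greenhouse → herbicidal score at 14 d post-treatment against graded standards.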

barnyardgrass (Ec) [3] = test: as above; format: in vivo; parameters: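 grade of growth control; 5 = at least 90%; 4 = 70 to 90%; 3 = 50 to 70%; 2 = 30 to 50%; 1 = 10 to 30%; 0 = under 10%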
How it was run: as §2

Diaitaria ciliaris (Di) = test: as above; format: in vivo; parameters: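 grade of growth control; 5 = at least 90%; 4 = 70 to 90%; 3 = 50 to 70%; 2 = 30 to 50%; 1 = 10 to 30%; 0 = under 10%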
How it was run: as §2

[4] = test system: common lambsquarters (Ch); test: as above; format: in vivo; parameters: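 grade of growth control; 5 = at least 90%; 4 = 70 to 90%; 3 = 50 to 70%; 2 = 30 to 50%; 1 = 10 to 30%; 0 = under 10%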
How it was run: as §2

slender amaranth (Am) [5] = test: as above; format: in vivo; parameters: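 grade of growth control; 5 = at least 90%; 4 = 70 to 90%; 3 = 50 to 70%; 2 = 30 to 50%; 1 = 10 to 30%; 0 = under 10%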
How it was run: as §2

pale smartweed (Po) [6] = test: as above; format: in vivo; parameters: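 grade of growth control; 5 = at least 90%; 4 = 70 to 90%; 3 = 50 to 70%; 2 = 30 to 50%; 1 = 10 to 30%; 0 = under 10%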
How it was run: as §2

China jute (Ab) = test: Test Example 9: crop plant selectivity by upland field foliage treatment (wheat), herbicidal effects; format: in vivo; parameters: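 grade of growth control; 5 = at least 90%; 4 = 70 to 90%; 3 = 50 to 70%; 2 = 30 to 50%; 1 = 10 to 30%; 0 = under 10%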; conditions: dose 1.6 g ai/10a, 14th day after treatment
Method: (§3) (Test on Crop Plant Selectivity by Upland Field Foliage Treatment)
(§4) In a plastic pot (surface area: 600 cm^2) filled with sand, wheat (Tr), pale smartweed (Po), slender amaranth (Am), common lambsquarters (Ch) and China jute (Ab) were sown and cultured in a green house for 2 weeks. […] The plants were then cultured in a green house, and the evaluation of the herbicidal effects and phytotoxicity was conducted on the 14th day after the treatment in accordance with the standards as identified in Table 47.

[7] = test system: common lambsquarters (Ch); test: as above; format: in vivo; parameters: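 grade of growth control; 5 = at least 90%; 4 = 70 to 90%; 3 = 50 to 70%; 2 = 30 to 50%; 1 = 10 to 30%; 0 = under 10%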; conditions: dose 1.6 g ai/10a, 14th day after treatment
Method: as §3, §4

slender amaranth (Am) [8] = test: as above; format: in vivo; parameters: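 grade of growth control; 5 = at least 90%; 4 = 70 to 90%; 3 = 50 to 70%; 2 = 30 to 50%; 1 = 10 to 30%; 0 = under 10%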; conditions: dose 1.6 g ai/10a, 14th day after treatment
Method: as §3, §4

pale smartweed (Po) [9] = test: as above; format: in vivo; parameters: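 grade of growth control; 5 = at least 90%; 4 = 70 to 90%; 3 = 50 to 70%; 2 = 30 to 50%; 1 = 10 to 30%; 0 = under 10%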; conditions: dose 1.6 g ai/10a, 14th day after treatment
Method: as §3, §4

wheat (Tr) = test: Test Example 9: crop plant selectivity by upland field foliage treatment (wheat), phytotoxicity; conditions: dose 1.6 g ai/10a, 14th day after treatment;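 note: grade of crop injury; 5 = at least 90%; 4 = 70 to 90%; 3 = 50 to 70%; 2 = 30 to 50%; 1 = 10 to 30%; 0 = under 10%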
Method: as §3, §4

rice flatsedge (Ci) [10] = test: Test Example 2: herbicidal effects by upland field soil treatment; format: in vivo; conditions: 100 g of the active ingredient per 10 ares
Excerpt: (§5) (Test on Herbicidal Effects by Upland Field Soil Treatment)

Digitaria ciliaris (Di) = test: as above; format: in vivo; conditions: 100 g of the active ingredient per 10 ares
Excerpt: as §5

barnyardgrass (Ec) [11] = test: as above; format: in vivo; conditions: 100 g of the active ingredient per 10 ares
Excerpt: as §5

[12] = test system: common lambsquarters (Ch); test: as above; format: in vivo; conditions: 100 g of the active ingredient per 10 ares
Excerpt: as §5

slender amaranth (Am) [13] = test: as above; format: in vivo; conditions: 100 g of the active ingredient per 10 ares
Excerpt: as §5

pale smartweed (Po) [14] = test: as above; format: in vivo; conditions: 100 g of the active ingredient per 10 ares
Excerpt: as §5

[15] = 100 g of the active ingredient per 10 ares, evaluated on the 14th day after treatment
[16] = 100 g active ingredient per 10 ares, evaluated 14th day after treatment
[17] = evaluated on the 21st day after application
[18] = 21st day after the application, index 0-5 of Table 47

Structure (SMILES) | Herbicidal effects Ec (barnyardgrass (Ec) [1]) | Herbicidal effects Sc (bulrush (Sc)) | Herbicidal effects Mo (monochoria (Mo)) | Herbicidal effects Ci (rice flatsedge (Ci) [2]; [15]) | Herbicidal effects Ec (barnyardgrass (Ec) [3]; [15]) | Herbicidal effects Di (Diaitaria ciliaris (Di); [15]) | Herbicidal effects Ch [4, 15] | Herbicidal effects Am (slender amaranth (Am) [5]; [15]) | Herbicidal effects Ci (rice flatsedge (Ci) [2]; [16]) | Herbicidal effects Ec (barnyardgrass (Ec) [3]; [16]) | Herbicidal effects Di (Diaitaria ciliaris (Di); [16]) | Herbicidal effects Ch [4, 16] | Herbicidal effects Am (slender amaranth (Am) [5]; [16]) | Herbicidal effects Po (pale smartweed (Po) [6]; [16]) | Herbicidal effects Ci (rice flatsedge (Ci) [10]; [17]) | Herbicidal effects Di (Digitaria ciliaris (Di); [17]) | Herbicidal effects Ec (barnyardgrass (Ec) [11]; [17]) | Herbicidal effects Ch [12, 17] | Herbicidal effects Am (slender amaranth (Am) [13]; [17]) | Herbicidal effects Po (pale smartweed (Po) [14]; [17]) | also measured
CCCC(Sc1cc(-c2ccc(C(F)(F)F)n(C)c2=O)c(F)cc1Cl)C(=O)OCC (centres unmarked) [1-48] | 5 | 5 | 5 | 5 | 5 | 5 | 5 | 5 |  |  |  |  |  |  |  |  |  |  |  |  | Herbicidal effects Po (pale smartweed (Po) [6]; [15]): 5; Herbicidal effects Ab (China jute (Ab)): 5; Herbicidal effects Ch [7]: 5; Herbicidal effects Am (slender amaranth (Am) [8]): 5; Herbicidal effects Po (pale smartweed (Po) [9]): 5; Phytotoxicity Tr (wheat (Tr)): 2
Cn1c(C(F)(F)F)ccc(-c2c(Cl)cc(Cl)c3oc(CBr)cc23)c1=O [Compound 4-16] | 5 | 5 | 5 |  |  |  |  |  | 5 | 5 | 5 | 5 | 5 | 5 | 5 | 5 | 5 | 5 | 5 | 5 | 
Cc1cc2c(-c3ccc(C(F)(F)F)n(C)c3=O)ccc(Cl)c2o1 [Compound 4-24] | 5 | 5 | 5 |  |  |  |  |  | 5 | 4 | 5 | 5 | 5 | 5 | 5 | 5 | 4 | 5 | 5 | 5 | 
Cn1c(C(F)(F)F)ccc(-c2c(Cl)cc(Cl)c3oc(C(Br)Br)cc23)c1=O [Compound 4-29] | 5 | 5 | 5 |  |  |  |  |  | 5 | 5 | 5 | 5 | 5 | 5 | 5 | 5 | 5 | 5 | 5 | 5 | 
CCOCc1cc2c(-c3ccc(C(F)(F)F)n(C)c3=O)c(F)cc(Cl)c2o1 [Compound 4-31] | 5 | 5 | 5 |  |  |  |  |  | 5 | 5 | 5 | 5 | 5 | 5 | 5 | 5 | 5 | 5 | 5 | 5 | 
COC(C)c1cc2c(-c3ccc(C(F)(F)F)n(C)c3=O)c(F)cc(Cl)c2o1 (centres unmarked) [Compound 4-35] |  |  |  |  |  |  |  |  | 5 | 5 | 5 | 5 | 5 | 5 | 5 | 5 | 5 | 5 | 5 | 5 | Herbicidal effects Ab (China jute (Ab)): 5; Herbicidal effects Ch [7]: 5; Herbicidal effects Am (slender amaranth (Am) [8]): 5; Herbicidal effects Po (pale smartweed (Po) [9]): 5; Phytotoxicity Tr (wheat (Tr)): 2
CCOC(C)c1cc2c(-c3ccc(C(F)(F)F)n(C)c3=O)c(F)cc(Cl)c2o1 (centres unmarked) [Compound 4-36] |  |  |  |  |  |  |  |  | 5 | 5 | 5 | 5 | 5 | 5 | 5 | 5 | 5 | 5 | 5 | 5 | Herbicidal effects Ab (China jute (Ab)): 5; Herbicidal effects Ch [7]: 5; Herbicidal effects Am (slender amaranth (Am) [8]): 5; Herbicidal effects Po (pale smartweed (Po) [9]): 5; Phytotoxicity Tr (wheat (Tr)): 2
CCC(OC)c1cc2c(-c3ccc(C(F)(F)F)n(C)c3=O)c(F)cc(Cl)c2o1 (centres unmarked) [Compound 4-39] |  |  |  |  |  |  |  |  |  |  |  |  |  |  |  |  |  |  |  |  | Herbicidal effects Ab (China jute (Ab)): 5; Herbicidal effects Ch [7]: 5; Herbicidal effects Am (slender amaranth (Am) [8]): 5; Herbicidal effects Po (pale smartweed (Po) [9]): 5; Phytotoxicity Tr (wheat (Tr)): 2
C=CCOc1cc(-c2cn(C)c(C(F)(F)F)cc2=O)c(F)cc1Cl [Compound 6-8] | 5 | 5 | 5 |  |  |  |  |  | 5 | 5 | 5 | 5 | 5 | 5 | 5 | 5 | 5 | 5 | 5 | 5 | 
Cc1cc(-c2ccc(Cl)cc2Cl)c(=O)n(C)c1C(F)(F)F [Compound No. 1-11] | 5 | 5 | 5 | 5 | 5 | 5 | 5 | 5 |  |  |  |  |  |  |  |  |  |  |  |  | Herbicidal effects Po (pale smartweed (Po) [6]; [15]): 5; Herbicidal effects Ci (rice flatsedge (Ci) [10]; [18]): 5; Herbicidal effects Di (Digitaria ciliaris (Di); [18]): 5; Herbicidal effects Ec (barnyardgrass (Ec) [11]; [18]): 5; Herbicidal effects Ch [12, 18]: 5; Herbicidal effects Am (slender amaranth (Am) [13]; [18]): 5; Herbicidal effects Po (pale smartweed (Po) [14]; [18]): 5
Cn1c(C(F)(F)F)ccc(-c2cc(C=O)c(Cl)cc2F)c1=O [Compound No. 1-81, 5-[1--methyl-6-trifluoromethyl-2(1H)-pyridon-3-yl]-2-chloro-4-fluorobenzaldehyde] | 5 | 5 | 5 | 5 | 5 | 5 | 5 | 5 |  |  |  |  |  |  |  |  |  |  |  |  | Herbicidal effects Po (pale smartweed (Po) [6]; [15]): 5; Herbicidal effects Ci (rice flatsedge (Ci) [10]; [18]): 5; Herbicidal effects Di (Digitaria ciliaris (Di); [18]): 5; Herbicidal effects Ec (barnyardgrass (Ec) [11]; [18]): 5; Herbicidal effects Ch [12, 18]: 5; Herbicidal effects Am (slender amaranth (Am) [13]; [18]): 5; Herbicidal effects Po (pale smartweed (Po) [14]; [18]): 5
Cn1c(C(F)(F)F)ccc(-c2cc(C(=O)O)c(Cl)cc2F)c1=O [Compound No. 1-141, 5-(1-methyl-6-trifluoromethyl-2(1H)-pyridon-3-yl)-2-chloro-4-fluorobenzoic acid] | 5 | 5 | 5 | 5 | 5 | 5 | 5 | 5 |  |  |  |  |  |  |  |  |  |  |  |  | Herbicidal effects Po (pale smartweed (Po) [6]; [15]): 5; Herbicidal effects Ci (rice flatsedge (Ci) [10]; [18]): 5; Herbicidal effects Di (Digitaria ciliaris (Di); [18]): 5; Herbicidal effects Ec (barnyardgrass (Ec) [11]; [18]): 4; Herbicidal effects Ch [12, 18]: 5; Herbicidal effects Am (slender amaranth (Am) [13]; [18]): 5; Herbicidal effects Po (pale smartweed (Po) [14]; [18]): 5
